These are literature values, as cited in patent publication US8071577B2, “Multi-phase contraceptive preparation based on a natural estrogen” (Bayer Pharma Aktiengesellschaft, priority 2004, dated 2011).

The data set concerns ovulation. To be noted: daily dose known from the literature.

Structures are written as SMILES.

In the case of `C[C@]12CCC3=C4CCC(=O)C=C4CC[C@H]3[C@@H]1CC[C@@]2(O)CC#N` [dienogest], the ovulation-inhibitory dose is recorded as 1.0 mg a day. Regarding `C[C@]12CCC(=O)C=C1[C@@H]1C[C@@H]1[C@H]1[C@@H]3[C@@H]4C[C@@H]4[C@@]4(CCC(=O)O4)[C@@]3(C)CC[C@@H]12` [drospirenone], the ovulation-inhibitory dose is on record as 2.0-3.0 mg a day.
